Data taken from patent US8329725B2, “Annelated pyrrolidin sulfonamides with oxadiazolone headgroup, processes for their preparation and their use as pharmaceuticals” (Sanofi, priority 2008, dated 2012).

What was measured:
human PPARalpha = target: T1, human PPARalpha (Homo sapiens, UniProt Q07869); experiment: Cellular PPARalpha assay (luciferase reporter, stably transfected HEK cell line); type: cell-based; conditions: PPARalpha reporter cell line (HEK, GR-GAL4-humanPPARalpha-LBD)
T1 construct: human PPARalpha receptor (amino acids S167-Y468); expressed in transfected cells
T1 sequence (Q07869 167-468): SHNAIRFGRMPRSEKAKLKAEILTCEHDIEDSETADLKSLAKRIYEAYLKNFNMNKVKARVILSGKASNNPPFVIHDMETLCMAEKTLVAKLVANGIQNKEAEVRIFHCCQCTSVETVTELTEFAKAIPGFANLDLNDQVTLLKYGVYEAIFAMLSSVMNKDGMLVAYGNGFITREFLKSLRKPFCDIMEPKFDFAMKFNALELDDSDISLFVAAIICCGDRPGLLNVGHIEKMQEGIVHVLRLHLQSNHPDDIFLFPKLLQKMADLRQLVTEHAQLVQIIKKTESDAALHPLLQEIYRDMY
Description: Determination of EC50 Values of PPAR Agonists in the Cellular PPARalpha Assay
The potency of substances which bind to human PPARalpha and activate it in an agonistic manner is analyzed using a stably transfected HEK cell line (HEK=human embryo kidney) which is referred to here as PPARalpha reporter cell line. It contains two genetic elements, a luciferase reporter element (pdeltaM-GAL4-Luc-Zeo) and a PPARalpha fusion protein (GR-GAL4-humanPPARalpha-LBD) which mediates expression of the luciferase reporter element depending on a PPARalpha ligand. The stably and constitutively expressed fusion protein GR-GAL4-humanPPARalpha-LBD binds in the cell nucleus of the PPARalpha reporter cell line via the GAL4 protein portion to the GAL4 DNA binding motifs 5′-upstream of the luciferase reporter element which is stably integrated in the genome of the cell line. There is only weak expression of the luciferase reporter gene in the absence of a PPARalpha ligand if fatty acid-depleted fetal calf serum (cs-FCS) is used in the assay. PPARalpha ligands bind and activate the PPARalpha fusion protein and thereby stimulate the expression of the luciferase reporter gene. The luciferase which is formed can be detected by means of chemiluminescence via an appropriate substrate. […]
The activity of PPARalpha agonists is determined in a 3-day assay which is described below: […]

human PPARdelta = target: T2, human PPARdelta (Homo sapiens, UniProt Q03181); experiment: Cellular PPARdelta assay (luciferase reporter, stably transfected HEK cell line); type: cell-based; conditions: PPARdelta reporter cell line (HEK, GR-GAL4-humanPPARdelta-LBD)
T2 construct: human PPARdelta receptor (amino acids S139-Y441); expressed in transfected cells
T2 sequence (Q03181 139-441): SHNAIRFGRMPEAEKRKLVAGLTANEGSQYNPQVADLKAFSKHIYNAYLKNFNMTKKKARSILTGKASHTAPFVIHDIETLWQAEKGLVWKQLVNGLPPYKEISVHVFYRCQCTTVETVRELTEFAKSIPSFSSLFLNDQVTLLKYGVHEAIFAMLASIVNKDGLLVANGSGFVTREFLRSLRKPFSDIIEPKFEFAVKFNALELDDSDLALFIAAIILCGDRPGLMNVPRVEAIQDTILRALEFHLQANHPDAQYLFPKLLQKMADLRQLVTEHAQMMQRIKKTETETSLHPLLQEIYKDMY
Description: Determination of EC50 Values of PPAR Agonists in the Cellular PPARdelta Assay
The potency of substances which bind to human PPARdelta and activate it in an agonistic manner is analyzed using a stably transfected HEK cell line (HEK=human embryo kidney) which is referred to here as PPARdelta reporter cell line. In analogy to the assay described for PPARalpha, the PPARdelta reporter cell line also contains two genetic elements, a luciferase reporter element (pdeltaM-GAL4-Luc-Zeo) and a PPARdelta fusion protein (GR-GAL4-humanPPARdelta-LBD) which mediates expression of the luciferase reporter element depending on a PPARdelta ligand. The stably and constitutively expressed fusion protein GR-GAL4-humanPPARdelta-LBD binds in the cell nucleus of the PPARdelta reporter cell line via the GAL4 protein portion to the GAL4 DNA binding motifs 5′-upstream of the luciferase reporter element which is stably integrated in the genome of the cell line. There is only little expression of the luciferase reporter gene in the absence of a PPARdelta ligand if fatty acid-depleted fetal calf serum (cs-FCS) is used in the assay. PPARdelta ligands bind and activate the PPARdelta fusion protein and thereby stimulate expression of the luciferase reporter gene. The luciferase which is formed can be detected by means of chemiluminescence via an appropriate substrate.
The production of the stable PPARdelta reporter cell line is based on a stable HEK-cell clone which was stably transfected with a luciferase reporter element. This step was already described above in the section “construction of the PPARalpha reporter cell line”. In a second step, the PPARdelta fusion protein (GR-GAL4-humanPPARdelta-LBD was stably introduced into this cell clone. For this purpose, the cDNA coding for the N-terminal 76 amino acids of the glucocorticoid receptor (Accession #P04150) was linked to the cDNA section coding for amino acids 1-147 of the yeast transcription factor GAL4 (Accession #P04386). The cDNA of the ligand-binding domain of the human PPARdelta receptor (amino acids S139-Y441; Accession #L07592) was cloned in at the 3′-end of this GR-GAL4 construct. The fusion construct prepared in this way (GR-GAL4-humanPPARdelta-LBD) was recloned into the plasmid pcDNA3 (Invitrogen) in order to enable constitutive expression by the cytomegalovirus promoter. This plasmid was linearized with a restriction endonuclease and stably transfected into the previously described cell clone containing the luciferase reporter element. […]
The activity of PPARdelta agonists is determined in a 3-day assay in exact analogy to the procedure already described for the PPARalpha reporter cell line except that the PPARdelta reporter cell line and a specific PPARdelta agonist was used as a standard to control test efficacy.

## O=c1[nH]c(-c2ccc(S(=O)(=O)N3CCc4cc(-c5ccc(C(F)(F)F)cc5)cnc43)cc2Cl)no1 [Example 14, 3-{2-Chloro-4-[5-(4-trifluoromethyl-phenyl)-2,3-dihydro-pyrrolo[2,3-b]pyridine-1-sulfonyl]-phenyl}-4H-[1,2,4]oxadiazol-5-one]
Human PPARalpha
  EC50: 1.89 µM
Human PPARdelta
  EC50: 0.034 µM

## CC1(C)CN(S(=O)(=O)c2ccc(-c3noc(=O)[nH]3)c(Cl)c2)c2ccc(-c3ccc(C(F)(F)F)cc3)nc21 [Example 16, 3-{2-Chloro-4-[3,3-dimethyl-5-(4-trifluoromethyl-phenyl)-2,3-dihydro-pyrrolo[3,2-b]pyridine-1-sulfonyl]-phenyl}-4H-[1,2,4]oxadiazol-5-one]
Human PPARalpha
  EC50: 0.8 µM
Human PPARdelta
  EC50: 0.0025 µM

## COc1ccc(-c2ccc3c(c2)CCN3S(=O)(=O)c2ccc(-c3noc(=O)[nH]3)cc2)nc1 [Example 8, 3-{4-[5-(5-Methoxy-pyridin-2-yl)-2,3-dihydro-indole-1-sulfonyl]-phenyl}-4H-[1,2,4]oxadiazol-5-one]
Human PPARdelta
  EC50: 1.3 µM

## COc1nc(C)ccc1-c1ccc2c(c1)CCN2S(=O)(=O)c1ccc(-c2noc(=O)[nH]2)cc1 [Example 5, 3-{4-[5-(2-Methoxy-6-methyl-pyridin-3-yl)-2,3-dihydro-indole-1-sulfonyl]-phenyl}-4H-[1,2,4]oxadiazol-5-one]
Human PPARdelta
  EC50: 3.55 µM
